# Assays:
# human dermal fibroblasts = experiment: Immunodetection of elastin in cultured human dermal fibroblasts; type: cell-based; settings: for elastin concentration: FIGS. 1A-1C
# Experimental: Biological effects of tannic acid in the presence of hyaluronic acid or ferulic acid were tested on dermal fibroblasts derived from punch biopsies of healthy skin. All fibroblasts were isolated by allowing migration out of skin explants and passaged by trypsinization. Fibroblasts were maintained in alpha-minimum essential medium supplemented with 20 mM HEPES, 1% antibiotics and antimycotics, 1% L-Glutamate and 2% fetal bovine serum (FBS). Cells were plated (50×10^5 cells/dish) to reach confluency and were cultured for 7 days in the presence or absence of hyaluronic acid (0.1%), ferulic acid (5 μg/mL), tannic acid (2 μg/mL), or a combination thereof.
# Cell cultures prepared according to Example 1 maintained in the presence or absence of tannic acid, hyaluronic acid, or ferulic acid were fixed in cold 100% methanol at […] for detection of elastin or in 4% paraformaldehyde at room temperature for detection of collagen I. The multiple parallel cultures were incubated with […] of polyclonal antibody to tropoelastin (Elastin Products, Owensville, MI), or polyclonal antibody to collagen type I (Chemicon, Temecula, CA). Cultures were incubated with the respective fluorescein-conjugated goat anti-rabbit, goat anti-mouse, or rabbit anti-goat secondary antibodies. Nuclei were counter stained with propidium iodide (Sigma, St. Louis, MO). All cultures were examined with a Nikon Eclipse E1000 microscope attached to a cooled CCD camera (QImaging, Retiga EX) and analyzed with the computer-generated morphometric analysis system, in which the Image-Pro Plus software (Media Cybernetics, Silver Springs, MD) estimates the proportion of areas marked with green fluorescence, in relation to the entire (1 square mm) analyzed field.
# Cultured human dermal fibroblasts were grown in the presence or absence of tannic acid at low concentration (2 μg/mL) and high concentration (20 μg/mL). Immunodetection of elastin was performed as described in Example 2.
# (§1) Cultured human dermal fibroblasts were grown in the presence of or absence of vitamin D (10^−7 M), tannic acid ([…]), or a combination of vitamin D and tannic acid (2 μg/mL) (FIGS. 2A-2B and FIGS. 3A-3C). Immunodetection of elastin was performed as described above.
# Cultured human dermal fibroblasts were grown in the presence of or absence hyaluronic acid (0.1%), tannic acid (2 μg/mL), or a combination of hyaluronic acid (0.1%) and tannic acid (2 μg/mL). Immunodetection of elastin was performed as described above.
# Cultured human dermal fibroblasts were grown in the presence or absence of ferulic acid (5 μg/mL), tannic acid (2 μg/mL), or a combination of ferulic acid (5 μg/mL) and tannic acid (2 μg/mL). Immunodetection of elastin and collagen I was performed as described above. Results are shown in FIGS. 5A-5C, and FIGS. 6A-6B for elastin and FIGS. 7A-7C and FIG. 8 for collagen.
# Cultured human dermal fibroblasts were grown in the presence or absence of ferulic acid (20 μM), tannic acid (2 μg/mL), or copper sulfate (2 μM). Fibroblasts were also grown in presence of a combination of ferulic acid (20 μM) and copper sulfate (2 μM), a combination of ferulic acid (20 μM) and tannic acid (2 μg/mL), and a combination of tannic acid (2 μg/mL) and copper sulfate (2 μM). Immunodetection of elastin was performed as described above.
# fibroblast cultures = experiment: Amount of tropoelastin in fibroblast cultures measured using PCR; type: cell-based, human; settings: tannic acid added to cultures that contained vitamin D3; PCR after 18 hours; FIG. 2A
# Experimental: FIG. 2A depicts the amount of tropoelastin in fibroblast cultures measured using PCR after 18 hours.
# as §1
compound,measurement,setting,value
O=C(OC[C@H]1O[C@@H](OC(=O)c2cc(O)c(O)c(OC(=O)c3cc(O)c(O)c(O)c3)c2)[C@H](OC(=O)c2cc(O)c(O)c(OC(=O)c3cc(O)c(O)c(O)c3)c2)[C@@H](OC(=O)c2cc(O)c(O)c(OC(=O)c3cc(O)c(O)c(O)c3)c2)[C@@H]1OC(=O)c1cc(O)c(O)c(OC(=O)c2cc(O)c(O)c(O)c2)c1)c1cc(O)c(O)c(OC(=O)c2cc(O)c(O)c(O)c2)c1 [tannic acid],net deposition of elastin,human dermal fibroblasts; tannic acid (2 μg/mL) added to hyaluronic acid (0.1%),improvement in net deposition of elastin
same,net deposition of elastin,human dermal fibroblasts; tannic acid (2 μg/mL) added to vitamin D (10^−7 M),improvement in net deposition of elastin
same,production of elastin,human dermal fibroblasts; tannic acid (2 μg/mL) in the presence of ferulic acid (5 μg/mL),improved production of elastin even in the presence of ferulic acid
same,elastin concentration,human dermal fibroblasts; tannic acid at high concentration (20 μg/mL),caused elastosis
same,elastin concentration,human dermal fibroblasts; tannic acid at low concentration (2 μg/mL),improved elastin concentration
same,amount of tropoelastin,fibroblast cultures,increased the amount of tropoelastin
hyaluronic acid,elastin production,human dermal fibroblasts; hyaluronic acid (0.1%) alone,inhibition of elastin production
vitamin D,elastin production,human dermal fibroblasts; vitamin D (10^−7 M) alone,inhibition of elastin production
